# Test results: US7217735B1, “Methods and compositions for enhancing delivery of therapeutic agents to tissues” (priority 1999, dated 2007)
# Assays:
# [1] = system: microtubule; details: cited from earlier work
# [2] = system: PC3 xenograft tumor; test: Doxorubicin accumulation and penetration in tumor histocultures (fluorescence microscopy); type: in vitro ADME, human; details: for Tissue-to-medium concentration ratio at 72 hr / Tissue concentration at 72 hr: PC3 xenograft tumor; for Tissue concentration at 72 hr: in µM; for distribution of fluorescence signal: 5 or 20 μM
# Description: The androgen-independent human prostate PC3 cells were maintained as xenograft tumors in male nude mice according to the previously published procedures (Pretlow et al., 1993; Nagabhushan et al., 1996). Briefly, minced tumor tissue mixed with the same volume of Matrigel was implanted into both flanks of the nude mice at 0.3 ml per site. Tumors were harvested when they reached a size of 1 g at about 1.5 to 2 months after implantation.
# (§1) In this example, the penetration of doxorubicin into multilayer tissue was monitored using prostate tumor specimens obtained from human cancer patients and using the human prostate PC3 xenograft tumor maintained in athymic mice. Doxorubicin was monitored by fluorescence.
# (§2) Histocultures of tumors were incubated with 1, 5 or 20:M doxorubicin as described in Example 1. […] At 4, 12, 24, 36, 48, and 72 hours, histocultures were collected and processed as described in Example 1. The fluorescence emitted by doxorubicin was visualized using fluorescence microscopy. The excitation and emission wavelengths were 546 nm and 565 nm, respectively. Microscopic images were captured using a Charged Couple Device (CCD) camera and the captured images were analyzed using Optimas image analysis software (Silver spring, MD). The doxorubicin concentration in tissues was quantified using standard curves (each curve contained six data points), established as follows. Samples for the standard curves were prepared by applying known amounts of doxorubicin in solution to microscope sections of blank dog prostate tissue. The standard doxorubicin solutions (2:1) were pipetted on 10:m-thick blank tissue sections, and carefully spread over a surface area of approximately 1.5–2 cm^2. The standard slides were scanned using the same conditions as the samples. The average fluorescence intensity per area were measured. Plots of the fluorescence readings against the applied doxorubicin concentrations in the standard curve samples provided the standard curves used to quantify the doxorubicin in the actual samples. For the latter, at least three sections were used to obtain the mean value in one tumor, and at least three tumors were used to obtain the mean value at each time point.
# (§3) The rate of doxorubicin penetration into patient and PC3 xenograft tumors was monitored using fluorescence microscopy.
# [3] = system: patient prostate tumors and PC3 xenograft tumors; test: Doxorubicin concentration versus distance from tumor periphery (FIG. 4); type: in vitro ADME, human
# Description: as §2, with “The standard doxorubicin solutions (2:1) were pipetted on 10:m-thick blank tissue sections, and carefully spread over a surface area of approximately 1.5–2 cm^2. The standard slides were scanned using the same conditions as the samples.” left out, “For the latter, at least three sections were used to obtain the mean value in one tumor, and at least three tumors were used to obtain the mean value at each time point.” left out
# FIG. 4 summarizes the drug concentration in tumor tissue, expressed as tissue-to-medium concentration ratio, as a function of the distance from the periphery of the tumor histocultures. […]
# [4] = system: human prostate tumor histocultures; details: cited from earlier work
# [5] = system: patient prostate tumors; test: Doxorubicin accumulation and penetration in tumor histocultures (fluorescence microscopy); type: in vitro ADME, human; details: for Tissue concentration at 72 hr: in µM; for distribution of fluorescence signal: 5 or 20 μM
# Description: as §1, §2, §3
# [6] = system: PC3 xenograft tumor; test: Tumor cell density after doxorubicin treatment; type: cell-based, human; details: 5 or 20 μM
# Description: The fractions of stromal tissue and tumor cells in each histoculture were measured using image analysis. Briefly, stromal and tumor cells of a 100× magnification field were outlined with the computer mouse. The sizes of each of these regions were determined via image analysis by counting the number of pixels in the region. […] Apoptotic cells were determined based on morphological changes in tumor cells such as chromatin condensation and margination, disappearance of nucleoli, formation of membrane blebs, apoptotic bodies and/or cell shrinkage (Kerr J F R et al. (1994) Cancer 73:2013). […] For each tumor piece, 50 to 100 images were processed, and the fractions of the tumor represented by tumor cells, stromal tissue, and interstitial space were calculated.
structure (smiles),measurement,setting,value
CC(=O)O[C@H]1C(=O)[C@@]2(C)[C@H]([C@H](OC(=O)c3ccccc3)[C@]3(O)C[C@H](OC(=O)[C@H](O)[C@@H](NC(=O)c4ccccc4)c4ccccc4)C(C)=C1C3(C)C)[C@]1(OC(C)=O)CO[C@@H]1C[C@@H]2O [7-epitaxol],microtubule binding affinity compared with paclitaxel,[1],similar
COc1cccc2c1C(=O)c1c(O)c3c(c(O)c1C2=O)C[C@@](O)(C(=O)CO)C[C@@H]3O[C@H]1C[C@H](N)[C@H](O)[C@H](C)O1 [doxorubicin],PC3 xenograft-to-patient tumor concentration ratio at 72 hr,[2]; 1 μM in culture medium,1.15
same,PC3 xenograft-to-patient tumor concentration ratio at 72 hr,[2]; 5 μM in culture medium,1.35
same,PC3 xenograft-to-patient tumor concentration ratio at 72 hr,[2]; 20 μM in culture medium,1.5
same,Tissue-to-medium concentration ratio at 72 hr,[2]; 1 μM in culture medium,33.6 ± 3.9
same,Tissue concentration at 72 hr,[2]; 1 μM in culture medium,33.6 ± 3.9
same,Tissue-to-medium concentration ratio at 72 hr,[2]; 5 μM in culture medium,42.7 ± 3.3
same,Tissue concentration at 72 hr,[2]; 5 μM in culture medium,213 ± 16.4
same,Tissue-to-medium concentration ratio at 72 hr,[2]; 20 μM in culture medium,55.3 ± 9.6
same,Tissue concentration at 72 hr,[2]; 20 μM in culture medium,1107 ± 193
same,drug distribution,"[2]; xenograft tumor, 1 μM, at 72 hr",remained confined to the periphery
same,distribution of fluorescence signal,"[2]; xenograft tumor, after 36 hr",evenly distributed
same,distribution of fluorescence signal,"[2]; xenograft tumor, first 24 hr",confined to the periphery
same,equilibrium between far end (325 μm) and periphery (75 μm) concentration,[3]; 1 μM,did not reach equilibrium
same,time at which equilibrium between far end and periphery was attained,[3]; 5 and 20 μM,36 h
same,IC50,"[4]; human prostate tumor histocultures, read-out: IC50, inhibition of tumor cell growth",61 nM
same,CC50,"[4]; human prostate tumor histocultures, read-out: LC50, tumor cell death",2100 nM
same,concentration sufficient to produce 50% cell death,[4]; patient prostate tumors,2.1 :M
same,concentration sufficient to produce 90% cell death,[4]; patient prostate tumors,4.2 :M
same,concentration sufficient to produce 90% inhibition of tumor cell proliferation,[4]; patient prostate tumors,0.4 :M
same,Tissue-to-medium concentration ratio at 72 hr,[5]; 1 μM in culture medium,29.2 ± 7.8
same,Tissue concentration at 72 hr,[5]; 1 μM in culture medium,29.2 ± 7.8
same,drug distribution,"[5]; 1 μM, by 72 hr",distributed evenly throughout the patient tumors
same,Tissue-to-medium concentration ratio at 72 hr,[5]; 5 μM in culture medium,31.6 ± 14.2
same,Tissue concentration at 72 hr,[5]; 5 μM in culture medium,158 ± 70.9
same,Tissue-to-medium concentration ratio at 72 hr,[5]; 20 μM in culture medium,36.9 ± 26.5
same,Tissue concentration at 72 hr,[5]; 20 μM in culture medium,739 ± 531
same,distribution of fluorescence signal,[5]; after 24 hr,evenly distributed throughout the histoculture
same,distribution of fluorescence signal,[5]; first 12 hr,confined to the periphery
same,cell density in the periphery of the tumor,[6],decreased with time
